Laboratory results taken from ChEMBL document CHEMBL1201862, “PubChem BioAssay data set” (2004).
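Values below derive from 48-hour exposures of cells grown in 96-well plates, with endpoints linearly interpolated between the two concentrations bracketing the appropriate inhibition level. GI50: concentration for 50% inhibition of growth.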 Activity calls are given as the source filed them. No stated cut-off is given here; in the data, active = GI50 up to about 1.1 µM and inactive = higher.

Legend:
Assay in all cases: inhibition of tumour cell growth, NCI panel, 48 h
[1] = test system: CAKI-1
[2] = test system: SK-MEL-28
[3] = test system: UACC-62
[4] = test system: SW-620
[5] = test system: SNB-19
[6] = test system: SF-268
[7] = test system: LXFL 529
[8] = test system: OVCAR-3
[9] = test system: U-251
[10] = test system: IGROV-1
[11] = test system: EKVX
[12] = test system: OVCAR-5
[13] = test system: KM12
[14] = test system: NCI-H522
[15] = test system: KM-20L2
[16] = test system: DMS-273
[17] = test system: NCI-H226
[18] = test system: K562
[19] = test system: HOP-92
[20] = test system: SK-MEL-5
[21] = test system: SN12C
[22] = test system: MOLT-4
[23] = test system: NCI-H23
[24] = test system: HCT-116
[25] = test system: 786-0
[26] = test system: Malme-3M
[27] = test system: HCT-15
[28] = test system: OVCAR-4
[29] = test system: SNB-78
[30] = test system: HT-29
[31] = test system: RXF 393
[32] = test system: UO-31
[33] = test system: SNB-75
[34] = test system: TK-10
[35] = test system: ACHN
[36] = test system: M19-MEL
[37] = test system: A549
[38] = test system: SK-OV-3
[39] = test system: SR
[40] = test system: RPMI-8226
[41] = test system: HCC 2998
[42] = test system: SK-MEL-2
[43] = test system: COLO 205
[44] = test system: SF-295
[45] = test system: UACC-257
[46] = test system: OVCAR-8
[47] = test system: Hs-578T
[48] = test system: DU-145
[49] = test system: M14
[50] = test system: HL-60
[51] = test system: BT-549
[52] = test system: MDA-MB-435
[53] = test system: PC-3
[54] = test system: MCF7
[55] = test system: CCRF-CEM
[56] = test system: HOP-62
[57] = test system: T47D
[58] = test system: NCI-H460
[59] = test system: NCI/ADR-RES
[60] = test system: A498
[61] = test system: SF-539
[62] = test system: MDA-N
[63] = test system: MDA-MB-231
[64] = test system: LOX IMVI
[65] = test system: HOP-18

Question: What does the source list for `C/C=C/C(=O)[C@@H](O)C(C)C`?
Answer: GI50 [1]: > 100 µM (inactive); GI50 [2]: > 100 µM (inactive); GI50 [3]: > 100 µM (inactive); GI50 [4]: > 100 µM (inactive); GI50 [5]: > 100 µM (inactive); GI50 [6]: > 100 µM (inactive); GI50 [7]: > 100 µM (inactive); GI50 [8]: > 100 µM (inactive); GI50 [9]: > 100 µM (inactive); GI50 [10]: > 100 µM (inactive); GI50 [11]: > 100 µM (inactive); GI50 [12]: > 100 µM (inactive); GI50 [13]: > 100 µM (inactive); GI50 [14]: > 100 µM (inactive); GI50 [15]: > 100 µM (inactive); GI50 [16]: > 100 µM (inactive); GI50 [17]: > 100 µM (inactive); GI50 [18]: > 100 µM (inactive); GI50 [19]: > 100 µM (inactive); GI50 [20]: > 100 µM (inactive); GI50 [21]: > 100 µM (inactive); GI50 [22]: > 100 µM (inactive); GI50 [23]: > 100 µM (inactive); GI50 [24]: > 100 µM (inactive); GI50 [25]: > 100 µM (inactive); GI50 [26]: > 100 µM (inactive); GI50 [27]: > 100 µM; GI50 [28]: > 100 µM (inactive); GI50 [29]: > 100 µM (inactive); GI50 [30]: > 100 µM (inactive); GI50 [31]: > 100 µM (inactive); GI50 [32]: > 100 µM (inactive); GI50 [33]: > 100 µM (inactive); GI50 [34]: > 100 µM (inactive); GI50 [35]: > 100 µM (inactive); GI50 [36]: > 100 µM (inactive); GI50 [37]: > 100 µM (inactive); GI50 [38]: > 100 µM (inactive); GI50 [39]: > 100 µM (inactive); GI50 [40]: > 100 µM (inactive); GI50 [41]: > 100 µM (inactive); GI50 [42]: > 100 µM (inactive); GI50 [43]: > 100 µM (inactive); GI50 [44]: > 100 µM (inactive); GI50 [45]: > 100 µM (inactive); GI50 [46]: > 100 µM (inactive)

Question: Which GI50 [1] does the source give for `O=C(CCCC1Cc2ccccc2C1=O)c1ccccc1` (stereo unspecified) here?
Answer: Its GI50 is > 100 µM (inactive).

Question: What about the GI50 [2] of the same compound?
Answer: The GI50 was > 100 µM (inactive).

Question: What about the GI50 [3] of the same compound?
Answer: Its GI50 is 69.5 µM (inactive).

Question: What about the GI50 [4] of the same compound?
Answer: Its GI50 is > 100 µM (inactive).

Question: What about the GI50 [5] of the same compound?
Answer: Its GI50 is 89.9 µM (inactive).

Question: What about the GI50 [6] of the same compound?
Answer: Its GI50 is > 100 µM (inactive).

Question: And the GI50 [47]?
Answer: The GI50 was > 100 µM (inactive).

Question: What about the GI50 [8] of the same compound?
Answer: The GI50 was 47.4 µM (inactive).

Question: What about the GI50 [9] of the same compound?
Answer: Its GI50 is 38.6 µM (inactive).

Question: What about the GI50 [10] of the same compound?
Answer: Its GI50 is > 100 µM (inactive).

Question: What about the GI50 [11] of the same compound?
Answer: Its GI50 is 65.2 µM (inactive).

Question: And the GI50 [12]?
Answer: The GI50 was > 100 µM (inactive).

Question: What about the GI50 [48] of the same compound?
Answer: Its GI50 is > 100 µM (inactive).

Question: And the GI50 [13]?
Answer: Its GI50 is 96.4 µM (inactive).

Question: What about the GI50 [49] of the same compound?
Answer: Its GI50 is 99.8 µM (inactive).

Question: And the GI50 [14]?
Answer: Its GI50 is 52.7 µM (inactive).

Question: And the GI50 [50]?
Answer: Its GI50 is 32.4 µM (inactive).

Question: What about the GI50 [51] of the same compound?
Answer: The GI50 was 38.6 µM (inactive).

Question: What about the GI50 [17] of the same compound?
Answer: The GI50 was 70.1 µM (inactive).

Question: What about the GI50 [18] of the same compound?
Answer: The GI50 was 39.8 µM (inactive).

Question: What about the GI50 [19] of the same compound?
Answer: The GI50 was 62.8 µM (inactive).

Question: And the GI50 [20]?
Answer: Its GI50 is 35.6 µM (inactive).

Question: And the GI50 [21]?
Answer: The GI50 was 54.7 µM (inactive).

Question: What about the GI50 [52] of the same compound?
Answer: Its GI50 is 56.1 µM (inactive).

Question: What about the GI50 [53] of the same compound?
Answer: The GI50 was 35.1 µM (inactive).

Question: What about the GI50 [22] of the same compound?
Answer: The GI50 was 33.3 µM (inactive).

Question: What about the GI50 [54] of the same compound?
Answer: Its GI50 is 31.2 µM (inactive).

Question: And the GI50 [23]?
Answer: The GI50 was 60.1 µM (inactive).

Question: What about the GI50 [55] of the same compound?
Answer: The GI50 was 66.5 µM (inactive).

Question: What about the GI50 [24] of the same compound?
Answer: The GI50 was 63.8 µM (inactive).

Question: And the GI50 [56]?
Answer: Its GI50 is > 100 µM (inactive).

Question: And the GI50 [25]?
Answer: The GI50 was > 100 µM (inactive).

Question: What about the GI50 [26] of the same compound?
Answer: Its GI50 is 44.2 µM (inactive).

Question: And the GI50 [27]?
Answer: The GI50 was 74.8 µM.

Question: And the GI50 [28]?
Answer: The GI50 was 59.3 µM (inactive).

Question: What about the GI50 [57] of the same compound?
Answer: The GI50 was 33.3 µM (inactive).

Question: And the GI50 [30]?
Answer: The GI50 was 42.2 µM (inactive).

Question: What about the GI50 [31] of the same compound?
Answer: Its GI50 is 52.5 µM (inactive).

Question: And the GI50 [58]?
Answer: Its GI50 is 89.9 µM (inactive).

Question: What about the GI50 [32] of the same compound?
Answer: The GI50 was 47.1 µM (inactive).

Question: What about the GI50 [33] of the same compound?
Answer: Its GI50 is 70.5 µM (inactive).

Question: And the GI50 [59]?
Answer: The GI50 was 26.9 µM (inactive).

Question: And the GI50 [34]?
Answer: Its GI50 is 84.5 µM (inactive).

Question: And the GI50 [35]?
Answer: The GI50 was 98.4 µM (inactive).

Question: What about the GI50 [60] of the same compound?
Answer: Its GI50 is 52.5 µM (inactive).

Question: What about the GI50 [61] of the same compound?
Answer: Its GI50 is > 100 µM (inactive).

Question: And the GI50 [37]?
Answer: Its GI50 is 50 µM (inactive).

Question: And the GI50 [38]?
Answer: The GI50 was > 100 µM (inactive).

Question: What about the GI50 [39] of the same compound?
Answer: The GI50 was 41.2 µM (inactive).

Question: What about the GI50 [62] of the same compound?
Answer: Its GI50 is 66.2 µM (inactive).

Question: And the GI50 [40]?
Answer: Its GI50 is 46.9 µM (inactive).

Question: And the GI50 [63]?
Answer: Its GI50 is > 100 µM (inactive).

Question: What about the GI50 [41] of the same compound?
Answer: Its GI50 is > 100 µM (inactive).

Question: What about the GI50 [42] of the same compound?
Answer: Its GI50 is > 100 µM (inactive).

Question: What about the GI50 [43] of the same compound?
Answer: Its GI50 is 93.8 µM (inactive).

Question: And the GI50 [64]?
Answer: Its GI50 is 34.8 µM (inactive).

Question: And the GI50 [44]?
Answer: The GI50 was 47.5 µM (inactive).

Question: And the GI50 [45]?
Answer: Its GI50 is 46.2 µM (inactive).

Question: What about the GI50 [46] of the same compound?
Answer: Its GI50 is 79.6 µM (inactive).

Question: Which results are given for `c1ccc(-n2cnnc2-c2nsc3ccccc23)cc1`?
Answer: GI50 [2]: > 100 µM (inactive); GI50 [65]: 9.71 µM (inactive); GI50 [3]: > 100 µM (inactive); GI50 [4]: > 100 µM (inactive); GI50 [5]: > 100 µM (inactive); GI50 [6]: > 100 µM (inactive); GI50 [7]: > 100 µM (inactive); GI50 [8]: 80.2 µM (inactive); GI50 [9]: > 100 µM (inactive); GI50 [10]: > 100 µM (inactive); GI50 [11]: > 100 µM (inactive); GI50 [12]: > 100 µM (inactive); GI50 [13]: > 100 µM (inactive); GI50 [49]: > 100 µM (inactive); GI50 [15]: > 100 µM (inactive); GI50 [16]: > 100 µM (inactive); GI50 [50]: > 100 µM (inactive); GI50 [18]: > 100 µM (inactive); GI50 [19]: 53.1 µM (inactive); GI50 [20]: > 100 µM (inactive); GI50 [21]: > 100 µM (inactive); GI50 [22]: > 100 µM (inactive); GI50 [23]: > 100 µM (inactive); GI50 [55]: > 100 µM (inactive); GI50 [24]: > 100 µM (inactive); GI50 [56]: > 100 µM (inactive); GI50 [27]: 74 µM; GI50 [28]: > 100 µM (inactive); GI50 [29]: > 100 µM (inactive); GI50 [30]: > 100 µM (inactive); GI50 [31]: > 100 µM (inactive); GI50 [58]: > 100 µM (inactive); GI50 [32]: > 100 µM (inactive); GI50 [33]: 29.5 µM (inactive); GI50 [34]: > 100 µM (inactive); GI50 [35]: 67.3 µM (inactive); GI50 [36]: > 100 µM (inactive); GI50 [61]: > 100 µM (inactive); GI50 [37]: > 100 µM (inactive); GI50 [40]: > 100 µM (inactive); GI50 [41]: > 100 µM (inactive); GI50 [42]: > 100 µM (inactive); GI50 [43]: > 100 µM (inactive); GI50 [64]: > 100 µM (inactive); GI50 [45]: > 100 µM (inactive); GI50 [46]: > 100 µM (inactive)
